Source: ChEMBL document CHEMBL4184261, “Activation loop targeting strategy for design of receptor-interacting protein kinase 2 (RIPK2) inhibitors” (Bioorg Med Chem Lett, 2018)
Active and inactive are the calls of the source. No cut-off for these calls is given here.

Assays:
[1] = molecular target: Receptor-interacting serine/threonine-protein kinase 2 (Homo sapiens) (UniProt O43353); experiment: Inhibition of wild type recombinant human His6-tagged RIPK2 at 5 uM using RS repeat peptide substrate incubated for 2 hrs by ADP-Glo assay
[2] = system: Receptor-interacting serine/threonine-protein kinase 2 (Homo sapiens), O43353 [R171C]; experiment: Inhibition of recombinant human His6-tagged RIPK2 R171C mutant at 5 uM using RS repeat peptide substrate incubated for 2 hrs by ADP-Glo assay
[3] = molecular target: Receptor-interacting serine/threonine-protein kinase 2 (Homo sapiens) (UniProt O43353); experiment: Inhibition of wild type recombinant human His6-tagged RIPK2 at 0.5 uM using RS repeat peptide substrate incubated for 2 hrs by ADP-Glo assay
Homo sapiens [4] = organism: Homo sapiens; experiment: Selectivity index, ratio of IC50 for recombinant human His6-tagged RIPK2 R171C mutant to IC50 for wild type recombinant human His6-tagged RIPK2
[5] = molecular target: Vascular endothelial growth factor receptor 2 (Homo sapiens) (UniProt P35968); experiment: Inhibition of N-terminal GST tagged recombinant human KDR (789 to end residues) expressed in baculovirus infected Sf9 cells at 20 uM using poly-E4Y1 substrate incubated for 2 hrs by ADP-Glo assay
Homo sapiens [6] = organism: Homo sapiens; experiment: Selectivity index, ratio of inhibition of N-terminal GST tagged recombinant human KDR (789 to end residues) expressed in baculovirus infected Sf9 cells to inhibition of wild type recombinant human His6-tagged RIPK2
[7] = molecular target: Receptor-interacting serine/threonine-protein kinase 2 (Homo sapiens) (UniProt O43353); experiment: Inhibition of wild type recombinant human His6-tagged RIPK2 at 10 uM using RS repeat peptide substrate incubated for 2 hrs by ADP-Glo assay

Receptor-interacting serine/threonine-protein kinase 2 (Homo sapiens), sequence (O43353 whole entry): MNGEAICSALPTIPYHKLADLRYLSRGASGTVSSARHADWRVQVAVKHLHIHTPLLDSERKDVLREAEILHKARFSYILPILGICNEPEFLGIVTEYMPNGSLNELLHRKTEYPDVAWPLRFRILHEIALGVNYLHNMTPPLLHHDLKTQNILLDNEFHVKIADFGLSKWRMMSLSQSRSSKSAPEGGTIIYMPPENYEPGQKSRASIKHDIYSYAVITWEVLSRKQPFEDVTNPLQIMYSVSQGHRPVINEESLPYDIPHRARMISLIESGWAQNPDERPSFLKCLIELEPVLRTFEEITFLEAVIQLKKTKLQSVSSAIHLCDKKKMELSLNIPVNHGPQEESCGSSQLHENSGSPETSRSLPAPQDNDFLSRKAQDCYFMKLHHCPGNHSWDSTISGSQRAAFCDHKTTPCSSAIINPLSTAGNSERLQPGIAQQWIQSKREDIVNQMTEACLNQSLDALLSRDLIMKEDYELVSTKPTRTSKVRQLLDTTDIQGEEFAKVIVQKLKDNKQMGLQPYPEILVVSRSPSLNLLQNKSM
Receptor-interacting serine/threonine-protein kinase 2 (Homo sapiens), O43353 [R171C], sequence (O43353 whole entry R171C): as the sequence (O43353 whole entry) above, with R171C counted along it
Vascular endothelial growth factor receptor 2 (Homo sapiens), sequence (P35968 whole entry): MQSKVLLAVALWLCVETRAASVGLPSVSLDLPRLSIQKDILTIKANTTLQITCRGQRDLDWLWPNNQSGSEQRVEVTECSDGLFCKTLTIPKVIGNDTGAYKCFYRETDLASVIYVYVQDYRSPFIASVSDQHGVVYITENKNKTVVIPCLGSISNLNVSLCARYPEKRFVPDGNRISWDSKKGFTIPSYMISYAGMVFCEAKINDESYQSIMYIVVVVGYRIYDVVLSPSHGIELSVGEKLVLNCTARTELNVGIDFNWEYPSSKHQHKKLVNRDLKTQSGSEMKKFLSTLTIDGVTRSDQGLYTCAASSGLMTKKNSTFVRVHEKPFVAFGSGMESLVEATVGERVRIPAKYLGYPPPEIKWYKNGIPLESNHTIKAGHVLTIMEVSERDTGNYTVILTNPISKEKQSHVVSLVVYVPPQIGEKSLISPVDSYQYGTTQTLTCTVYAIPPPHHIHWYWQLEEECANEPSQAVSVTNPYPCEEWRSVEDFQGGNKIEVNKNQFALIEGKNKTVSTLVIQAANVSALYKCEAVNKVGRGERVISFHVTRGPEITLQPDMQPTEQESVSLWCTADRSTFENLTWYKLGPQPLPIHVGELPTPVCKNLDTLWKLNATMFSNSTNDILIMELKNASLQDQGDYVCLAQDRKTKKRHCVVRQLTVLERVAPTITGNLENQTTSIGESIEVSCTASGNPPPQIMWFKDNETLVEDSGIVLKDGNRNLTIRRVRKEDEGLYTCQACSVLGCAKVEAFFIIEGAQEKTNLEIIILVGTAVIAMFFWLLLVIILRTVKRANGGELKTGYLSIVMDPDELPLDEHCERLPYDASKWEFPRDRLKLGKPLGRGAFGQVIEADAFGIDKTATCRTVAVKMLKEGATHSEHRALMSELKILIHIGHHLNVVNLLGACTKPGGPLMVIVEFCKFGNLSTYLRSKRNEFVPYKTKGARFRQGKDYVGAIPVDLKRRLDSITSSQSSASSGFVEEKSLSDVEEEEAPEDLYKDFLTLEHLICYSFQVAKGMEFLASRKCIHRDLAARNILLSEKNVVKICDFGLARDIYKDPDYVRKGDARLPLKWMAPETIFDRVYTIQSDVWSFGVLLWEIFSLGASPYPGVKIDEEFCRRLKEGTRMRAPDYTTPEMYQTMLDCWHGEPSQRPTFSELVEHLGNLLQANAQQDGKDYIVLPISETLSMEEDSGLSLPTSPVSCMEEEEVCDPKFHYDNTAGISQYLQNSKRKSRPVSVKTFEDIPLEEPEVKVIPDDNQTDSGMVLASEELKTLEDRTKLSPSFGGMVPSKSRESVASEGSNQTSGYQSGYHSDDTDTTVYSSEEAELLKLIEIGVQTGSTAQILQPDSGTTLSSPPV

| Compound | inhibition [1] | inhibition [3] | further results |
| --- | --- | --- | --- |
| CNC(=O)c1cc(Oc2ccc(NC(=O)Nc3ccc(SCC(=O)O)c(F)c3)c(F)c2)ccn1 | 70% |  | inhibition [2]: 64%; Ratio IC50 (Homo sapiens [4]): 2; inhibition [5]: 35.8%; Selectivity Index (Homo sapiens [6]): > 10 |
| CNC(=O)c1cc(Oc2ccc(NC(=O)Nc3ccc(C(=O)O)cc3)c(F)c2)ccn1 |  | inactive |  |
| CNC(=O)c1cc(Oc2ccc(NC(=O)Nc3ccc(N4CC(=O)NS4(=O)=O)c(C)c3)c(F)c2)ccn1 |  | 1% |  |
| Nc1ccc(SCC(=O)O)c(F)c1 |  |  | inhibition [7]: 10% |
| CNC(=O)c1cc(Oc2ccc(NC(=O)Nc3cccc(CCN)c3)c(F)c2)ccn1 |  | 12% |  |
| CNC(=O)c1cc(Oc2ccc(NC(=O)Nc3ccc(SCC(=O)O)cc3)c(F)c2)ccn1 | 27% |  | inhibition [2]: 17% |
| CNC(=O)c1cc(Oc2ccc(NC(=O)Nc3ccc(OCCS(C)(=O)=O)c(C)c3)c(F)c2)ccn1 |  | 35% |  |
| CNC(=O)c1cc(Oc2ccc(NC(=O)Nc3ccc(CC(=O)O)cc3)c(F)c2)ccn1 | 18% |  |  |

The next lines start with results.

| inhibition [1] | inhibition [3] | Compound | further results |
| --- | --- | --- | --- |
| inactive |  | CNC(=O)c1cc(Oc2ccc(NC(=O)Nc3cccc(CC(=O)O)c3)c(F)c2)ccn1 | inhibition [2]: inactive |
| 25% |  | CNC(=O)c1cc(Oc2ccc(NC(=O)Nc3cccc(SCC(=O)O)c3)c(F)c2)ccn1 |  |
|  | 32% | CNC(=O)c1cc(Oc2ccc(NC(=O)Nc3cccc(C(C)(C)N)c3)c(F)c2)ccn1 |  |
|  | inactive | CNC(=O)c1cc(Oc2ccc(NC(=O)Nc3cccc(C(=O)O)c3)c(F)c2)ccn1 |  |
| 47% |  | CNC(=O)c1cc(Oc2ccc(NC(=O)Nc3cccc(C(C)(C)C(=O)O)c3)c(F)c2)ccn1 |  |
